Each structure is given as a SMILES string.

One test concerns the target T1, STAT6 protein (Homo sapiens, UniProt P42226).
T1 sequence (P42226 1-847): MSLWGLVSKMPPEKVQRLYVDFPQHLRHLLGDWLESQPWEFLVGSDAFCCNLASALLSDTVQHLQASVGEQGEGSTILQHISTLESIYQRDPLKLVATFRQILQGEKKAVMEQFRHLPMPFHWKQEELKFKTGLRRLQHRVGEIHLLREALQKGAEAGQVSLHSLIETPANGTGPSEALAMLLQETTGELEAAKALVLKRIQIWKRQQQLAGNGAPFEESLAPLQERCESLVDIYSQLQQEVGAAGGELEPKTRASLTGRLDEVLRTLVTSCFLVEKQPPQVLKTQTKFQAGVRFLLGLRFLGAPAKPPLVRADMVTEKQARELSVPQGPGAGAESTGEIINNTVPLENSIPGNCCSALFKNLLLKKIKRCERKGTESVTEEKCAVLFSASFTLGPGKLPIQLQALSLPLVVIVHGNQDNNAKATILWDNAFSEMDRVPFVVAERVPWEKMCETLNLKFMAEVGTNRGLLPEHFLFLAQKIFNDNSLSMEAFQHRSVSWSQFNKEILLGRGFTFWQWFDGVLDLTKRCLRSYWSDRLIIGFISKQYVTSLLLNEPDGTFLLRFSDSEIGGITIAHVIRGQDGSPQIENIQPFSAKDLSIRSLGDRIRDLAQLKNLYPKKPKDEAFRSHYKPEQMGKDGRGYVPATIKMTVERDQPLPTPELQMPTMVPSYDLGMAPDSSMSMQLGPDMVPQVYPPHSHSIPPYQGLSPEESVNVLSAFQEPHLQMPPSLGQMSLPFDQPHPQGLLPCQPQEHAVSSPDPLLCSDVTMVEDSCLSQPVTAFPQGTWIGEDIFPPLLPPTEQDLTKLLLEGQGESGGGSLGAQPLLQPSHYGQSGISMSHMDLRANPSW
Description: Fluorescence polarization (FP) binding assay, STAT6.
Details: not given
The gist of the method:
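Polarization of a 5 nM fluorescein tracer bound by 200 nM STAT protein, measured after 1 h room-temperature equilibration in buffered PBS pH 7.4 with DTT, gave inhibition constants via nonlinear curve fitting.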
On the technique in general: In fluorescence polarisation assays a small probe gives low polarisation when free and higher when bound to something large.
`CCOP(=O)(O)C(F)(F)c1ccc2sc(C(=O)N[C@H]3CN(C(C)=O)CC[C@H]4CC[C@@H](C(=O)N5CCC6(CCCCCC6)C5)N4C3=O)cc2c1` [Compound 384, ethyl hydrogen ((2-(((5S,85,10aR)-3-acetyl-6-oxo-8-(2-azaspiro[4.6]undecane-2-carbonyl)decahydropyrrolo[1,2-a][1,5]diazocin-5-yl)carbamoyl)benzo[b]thiophen-5-yl)difluoromethyl)phosphonate]: the Ki is more than 10 µM.

The same test, now with this note: FP competition, 5 nM fluorescein-labeled tracer, 200 nM protein, PBS pH7.4; read-out: Binding STAT6.
As to `CC(=O)N1CC[C@H]2CC[C@@H](C(=O)N3Cc4cccc(Cl)c4C3)N2C(=O)[C@@H](NC(=O)c2cc3cc(C(F)(F)P(=O)(O)O)ccc3[nH]2)C1` [Compound 378, ((2-(((5S,8S,10aR)-3-acetyl-8-(4-chloroisoindoline-2-carbonyl)-6-oxodecahydropyrrolo[1,2-a][1,5]diazocin-5-yl)carbamoyl)-1H-indol-5-yl)difluoromethyl)phosphonic acid], the Ki is more than 10 µM.

Take `CN(C(=O)[C@@H]1CC[C@@H]2CCC[C@H](NC(=O)c3cc4cc(C(F)(F)P(=O)(O)O)ccc4s3)C(=O)N21)c1ccc(Cl)cc1` [Compound 379, ((2-(((3S,6S,9aS)-3-((4-chlorophenyl)(methyl)carbamoyl)-5-oxooctahydro-1H-pyrrolo[1,2-a]azepin-6-yl)carbamoyl)benzo[b]thiophen-5-yl)difluoromethyl)phosphonic acid]: the Ki is more than 10 µM.

Take `CN(C(=O)[C@@H]1CC[C@H]2CCC[C@H](NC(=O)c3cc4cc(C(F)(F)P(=O)(O)O)ccc4s3)C(=O)N21)c1ccc(Cl)cc1` [Compound 380, ((2-(((3S,65,9aR)-3-((4-chlorophenyl)(methyl)carbamoyl)-5-oxooctahydro-1H-pyrrolo[1,2-a]azepin-6-yl)carbamoyl)benzo[b]thiophen-5-yl)difluoromethyl)phosphonic acid]: the Ki was more than 10 µM.

Turning to `CC(=O)N1CC[C@H]2CC[C@@H](C(=O)N3CCCCC3)N2C(=O)[C@@H](NC(=O)c2cc3cc(C(F)(F)P(=O)(O)O)ccc3s2)C1` [Compound 381, ((2-(((5S,8S,10aR)-3-acetyl-6-oxo-8-(piperidine-1-carbonyl)decahydropyrrolo[1,2-a][1,5]diazocin-5-yl)carbamoyl)benzo[b]thiophen-5-yl)difluoromethyl)phosphonic acid], the Ki was more than 10 µM.

On to `CC(=O)N1CC[C@H]2CC[C@@H](C(=O)N3CCC4(CCCC4)C3)N2C(=O)[C@@H](NC(=O)c2cc3cc(C(F)(F)P(=O)(O)O)ccc3s2)C1` [Compound 382, ((2-(((5S,8S,10aR)-3-acetyl-6-oxo-8-(2-azaspiro[4.4]nonane-2-carbonyl)decahydropyrrolo[1,2-a][1,5]diazocin-5-yl)carbamoyl)benzo[b]thiophen-5-yl)difluoromethyl)phosphonic acid], for which the Ki was more than 10 µM.

In the case of `CC(=O)N1CC[C@H]2CC[C@@H](C(=O)N3CCC4(CCCCC4)C3)N2C(=O)[C@@H](NC(=O)c2cc3cc(C(F)(F)P(=O)(O)O)ccc3s2)C1` [Compound 383, ((2-(((5,8S,10aR)-3-acetyl-6-oxo-8-(2-azaspiro[4.5]decane-2-carbonyl)decahydropyrrolo[1,2-a][1,5]diazocin-5-yl)carbamoyl)benzo[b]thiophen-5-yl)difluoromethyl)phosphonic acid], the Ki is more than 10 µM. `CC(=O)N1CC[C@H]2CC[C@@H](C(=O)N3CCC4(CCCCCC4)C3)N2C(=O)[C@@H](NC(=O)c2cc3cc(C(F)(F)P(=O)(O)O)ccc3s2)C1` [Compound 385, ((2-(((5S,8S,10aR)-3-acetyl-6-oxo-8-(2-azaspiro[4.6]undecane-2-carbonyl)decahydropyrrolo[1,2-a][1,5]diazocin-5-yl)carbamoyl)benzo[b]thiophen-5-yl)difluoromethyl)phosphonic acid]: the Ki is more than 10 µM.
